Like-named read-outs stand apart in the source and are kept apart here.
Target: CRBN/DDB1 protein (Homo sapiens, UniProt Q96SW2)
Assay: Detection of inhibition of CRBN/DDB1 activity by compounds (FRET)
Type: binding
Experimental: Test Example 1 Detection of Inhibition of CRBN/DDB1 Activity by Compounds (FRET)
Microplate reader (BMG PHERAstar FSX), ECHO (LABCYTE Echo 665), microplate thermostatic oscillator (Hangzhou Ruicheng Instrument Co., Ltd.), disodium hydrogen phosphate (Sigma), sodium dihydrogen phosphate (Sigma), bovine serum albumin (Sigma), Anti-6His-Tb crypate Gold (CISBIO), CRBN/DDB1 protein (HitGen) and 384-well plate (Grenier Bio-one).
The dry powder of the compound was dissolved in DMSO, and the compound was serially diluted using ECHO, and added to a 384-well reaction plate, so that the final concentration of DMSO in the whole reaction system (10.0 μL) was 1.0%, and the same amount of DMSO was added as a control.
20 mM disodium hydrogen phosphate, 20 mM sodium dihydrogen phosphate, 0.08% bovine serum albumin and buffer with pH of 7.0 were used to dilute the CRBN/DDB1 protein to twice the required final concentration (5.0 nM), and 5.0 μL of the diluted CRBN/DDB1 protein was added into the 384-well reaction plate added with compounds, centrifuged at 1000 rpm for 1 min, then placed on a microplate thermostatic oscillator, and pre-incubated at 25° C. and 250 rpm for 15 min. 20 mM disodium hydrogen phosphate, 20 mM sodium dihydrogen phosphate, 0.08% bovine serum albumin and buffer with a pH of 7.0 were used to dilute Anti-6His-Tb crypate Gold and FITC-labeled thalidomide analogues to twice the required final concentration, and the final concentration of Anti-6His-Tb crypate Gold was 0.2 nM, the final concentration of FITC-labeled thalidomide analogues was 50.0 nM, and a mixed solution of Anti-6His-Tb crypate Gold/FITC-labeled thalidomide analogues was obtained. […] After the reaction was completed, the fluorescence signal value (Ex-337 nm Em=520/490 nm) in the 384-well reaction plate was read by the microplate reader. […]
The percentage of residual activity of each concentration was calculated as follows: […]
Then, the dose-effect curve was fitted using GraphPad Prism 6.0 and the IC50 value was calculated accordingly.

Chain of CRBN/DDB1 protein (Q96SW2 whole entry, species assumed): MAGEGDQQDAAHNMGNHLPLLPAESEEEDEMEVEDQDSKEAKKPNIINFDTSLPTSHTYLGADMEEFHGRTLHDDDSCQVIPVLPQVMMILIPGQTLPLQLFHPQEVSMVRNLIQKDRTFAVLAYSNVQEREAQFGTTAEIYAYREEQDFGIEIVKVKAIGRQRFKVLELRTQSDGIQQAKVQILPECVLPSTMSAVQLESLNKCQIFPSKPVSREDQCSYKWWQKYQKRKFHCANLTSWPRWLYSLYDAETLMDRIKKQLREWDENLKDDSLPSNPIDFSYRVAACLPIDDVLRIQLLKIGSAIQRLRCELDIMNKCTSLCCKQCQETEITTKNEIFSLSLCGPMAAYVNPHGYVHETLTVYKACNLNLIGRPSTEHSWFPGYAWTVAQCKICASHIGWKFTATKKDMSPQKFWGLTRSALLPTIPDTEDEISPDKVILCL
Chain of CRBN/DDB1 protein (Q16531 whole entry partner, species assumed): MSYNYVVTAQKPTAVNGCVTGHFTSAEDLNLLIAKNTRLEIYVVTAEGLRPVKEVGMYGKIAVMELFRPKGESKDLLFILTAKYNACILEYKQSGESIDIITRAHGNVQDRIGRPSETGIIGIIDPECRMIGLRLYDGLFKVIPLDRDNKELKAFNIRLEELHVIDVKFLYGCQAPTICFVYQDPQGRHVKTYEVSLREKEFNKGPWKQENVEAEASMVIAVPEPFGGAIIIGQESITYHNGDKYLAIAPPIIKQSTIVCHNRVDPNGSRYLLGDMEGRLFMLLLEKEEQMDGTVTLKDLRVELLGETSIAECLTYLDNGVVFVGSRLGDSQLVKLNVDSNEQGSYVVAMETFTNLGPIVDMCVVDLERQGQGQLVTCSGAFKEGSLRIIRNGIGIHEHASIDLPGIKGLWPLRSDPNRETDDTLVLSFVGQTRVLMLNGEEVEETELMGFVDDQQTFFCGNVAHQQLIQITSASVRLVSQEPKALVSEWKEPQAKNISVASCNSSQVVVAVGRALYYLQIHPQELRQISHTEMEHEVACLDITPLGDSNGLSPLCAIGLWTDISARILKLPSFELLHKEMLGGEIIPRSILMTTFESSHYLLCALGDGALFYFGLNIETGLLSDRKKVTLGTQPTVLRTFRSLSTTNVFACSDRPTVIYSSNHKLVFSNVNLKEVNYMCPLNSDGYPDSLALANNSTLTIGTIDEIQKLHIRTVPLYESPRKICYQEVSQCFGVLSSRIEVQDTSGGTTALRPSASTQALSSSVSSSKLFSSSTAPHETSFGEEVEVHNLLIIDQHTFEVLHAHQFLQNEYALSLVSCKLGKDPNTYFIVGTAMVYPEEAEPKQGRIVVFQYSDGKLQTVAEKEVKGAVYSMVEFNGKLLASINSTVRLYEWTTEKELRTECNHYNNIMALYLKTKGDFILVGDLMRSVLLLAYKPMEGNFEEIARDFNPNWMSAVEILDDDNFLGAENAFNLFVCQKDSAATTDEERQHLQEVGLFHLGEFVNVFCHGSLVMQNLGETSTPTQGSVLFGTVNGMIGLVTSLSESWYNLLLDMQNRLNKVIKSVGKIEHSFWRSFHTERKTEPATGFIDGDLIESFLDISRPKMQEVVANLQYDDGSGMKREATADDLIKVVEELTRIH

| Compound | IC50 [nM] | IC50 (FRET, 5.0 nM CRBN/DDB1, 0.2 nM Anti-6His-Tb, 50.0 nM FITC-labeled thalidomide analogue, 1.0% DMSO, 25° C., read-out: IC50, inhibition of CRBN/DDB1 protein) [nM] |
| --- | --- | --- |
| O=C1CC2(CN(C(=O)c3c4n(c5ccccc35)C=NC4=O)C2)C(=O)N1 [Compound B3] | 43 |  |
| O=C1CC2(CN(C(=O)c3c4n(c5ccccc35)CNC4=O)C2)C(=O)N1 [Compound B4] | 18 |  |
| CN1Cn2c(c(C(=O)N3CC4(CC(=O)NC4=O)C3)c3ccccc32)C1=O [Compound B5] |  | 11 |

From patent US20260234166A1, “FUSED RING COMPOUND AND USE THEREOF” (HITGEN INC., priority 2023, published 2026)
